Test results taken from US20240199654A1, “CTLA-4 SMALL MOLECULE DEGRADATION AGENT AND APPLICATION THEREOF” (SUZHOU GUOKUANG PHARMTECH. CO., LTD., priority 2021, published 2024).

The compounds below were run against T1, LRBA and CTLA-4 reporting system (Homo sapiens, UniProt P16410+P50851) (assay: LRBA/CTLA-4 protein-protein interaction reporting system, dual luciferase assay in HEK293 cells). Conditions: HEK293 cells co-transfected with LRBA and CTLA-4 reporting system, 24 h after dosing; read-out: In vitro activity (IC50: concentration of compounds that inhibit 50% of reporting system activity).
T1 construct: expressed in transfected cells; host or cells: HEK293
Type: cell-based
Experimental: HEK293 cells were spread on 96-well plates, and LRBA and CTLA-4 reporting system were co-transfected into HEK293 cells after 24 h. After 24 h, different compounds with final concentrations of 0.01, 0.033, 0.10, 0.33, 1.00, 3.33, 10.00, 33.33, and 100.00 μM were added. 24 h after dosing, the cell culture medium was removed and the cells were washed with cold PBS. Then the activity of the compounds were detected by the dual luciferase assay kit, and IC50 values were calculated according to the results.
For the compounds with strong activity (IC50<200 nM), the degradation of CTLA-4 protein was further detected by Western Blot. • IC50: Concentration of compounds that inhibit 50% of reporting system activity The size of IC50 is divided into four levels: • ++++, IC50<200 nM; +++, IC50 is 200-1000 nM; ++, IC50 is 1000-2000 nM; +, IC50>2000 nM.

T1 sequence (P16410 36-223): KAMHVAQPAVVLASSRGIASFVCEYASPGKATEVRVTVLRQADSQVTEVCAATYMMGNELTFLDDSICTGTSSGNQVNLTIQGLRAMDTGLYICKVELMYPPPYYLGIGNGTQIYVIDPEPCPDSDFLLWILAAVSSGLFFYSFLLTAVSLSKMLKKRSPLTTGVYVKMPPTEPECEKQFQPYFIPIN
T1 sequence (P50851 whole entry): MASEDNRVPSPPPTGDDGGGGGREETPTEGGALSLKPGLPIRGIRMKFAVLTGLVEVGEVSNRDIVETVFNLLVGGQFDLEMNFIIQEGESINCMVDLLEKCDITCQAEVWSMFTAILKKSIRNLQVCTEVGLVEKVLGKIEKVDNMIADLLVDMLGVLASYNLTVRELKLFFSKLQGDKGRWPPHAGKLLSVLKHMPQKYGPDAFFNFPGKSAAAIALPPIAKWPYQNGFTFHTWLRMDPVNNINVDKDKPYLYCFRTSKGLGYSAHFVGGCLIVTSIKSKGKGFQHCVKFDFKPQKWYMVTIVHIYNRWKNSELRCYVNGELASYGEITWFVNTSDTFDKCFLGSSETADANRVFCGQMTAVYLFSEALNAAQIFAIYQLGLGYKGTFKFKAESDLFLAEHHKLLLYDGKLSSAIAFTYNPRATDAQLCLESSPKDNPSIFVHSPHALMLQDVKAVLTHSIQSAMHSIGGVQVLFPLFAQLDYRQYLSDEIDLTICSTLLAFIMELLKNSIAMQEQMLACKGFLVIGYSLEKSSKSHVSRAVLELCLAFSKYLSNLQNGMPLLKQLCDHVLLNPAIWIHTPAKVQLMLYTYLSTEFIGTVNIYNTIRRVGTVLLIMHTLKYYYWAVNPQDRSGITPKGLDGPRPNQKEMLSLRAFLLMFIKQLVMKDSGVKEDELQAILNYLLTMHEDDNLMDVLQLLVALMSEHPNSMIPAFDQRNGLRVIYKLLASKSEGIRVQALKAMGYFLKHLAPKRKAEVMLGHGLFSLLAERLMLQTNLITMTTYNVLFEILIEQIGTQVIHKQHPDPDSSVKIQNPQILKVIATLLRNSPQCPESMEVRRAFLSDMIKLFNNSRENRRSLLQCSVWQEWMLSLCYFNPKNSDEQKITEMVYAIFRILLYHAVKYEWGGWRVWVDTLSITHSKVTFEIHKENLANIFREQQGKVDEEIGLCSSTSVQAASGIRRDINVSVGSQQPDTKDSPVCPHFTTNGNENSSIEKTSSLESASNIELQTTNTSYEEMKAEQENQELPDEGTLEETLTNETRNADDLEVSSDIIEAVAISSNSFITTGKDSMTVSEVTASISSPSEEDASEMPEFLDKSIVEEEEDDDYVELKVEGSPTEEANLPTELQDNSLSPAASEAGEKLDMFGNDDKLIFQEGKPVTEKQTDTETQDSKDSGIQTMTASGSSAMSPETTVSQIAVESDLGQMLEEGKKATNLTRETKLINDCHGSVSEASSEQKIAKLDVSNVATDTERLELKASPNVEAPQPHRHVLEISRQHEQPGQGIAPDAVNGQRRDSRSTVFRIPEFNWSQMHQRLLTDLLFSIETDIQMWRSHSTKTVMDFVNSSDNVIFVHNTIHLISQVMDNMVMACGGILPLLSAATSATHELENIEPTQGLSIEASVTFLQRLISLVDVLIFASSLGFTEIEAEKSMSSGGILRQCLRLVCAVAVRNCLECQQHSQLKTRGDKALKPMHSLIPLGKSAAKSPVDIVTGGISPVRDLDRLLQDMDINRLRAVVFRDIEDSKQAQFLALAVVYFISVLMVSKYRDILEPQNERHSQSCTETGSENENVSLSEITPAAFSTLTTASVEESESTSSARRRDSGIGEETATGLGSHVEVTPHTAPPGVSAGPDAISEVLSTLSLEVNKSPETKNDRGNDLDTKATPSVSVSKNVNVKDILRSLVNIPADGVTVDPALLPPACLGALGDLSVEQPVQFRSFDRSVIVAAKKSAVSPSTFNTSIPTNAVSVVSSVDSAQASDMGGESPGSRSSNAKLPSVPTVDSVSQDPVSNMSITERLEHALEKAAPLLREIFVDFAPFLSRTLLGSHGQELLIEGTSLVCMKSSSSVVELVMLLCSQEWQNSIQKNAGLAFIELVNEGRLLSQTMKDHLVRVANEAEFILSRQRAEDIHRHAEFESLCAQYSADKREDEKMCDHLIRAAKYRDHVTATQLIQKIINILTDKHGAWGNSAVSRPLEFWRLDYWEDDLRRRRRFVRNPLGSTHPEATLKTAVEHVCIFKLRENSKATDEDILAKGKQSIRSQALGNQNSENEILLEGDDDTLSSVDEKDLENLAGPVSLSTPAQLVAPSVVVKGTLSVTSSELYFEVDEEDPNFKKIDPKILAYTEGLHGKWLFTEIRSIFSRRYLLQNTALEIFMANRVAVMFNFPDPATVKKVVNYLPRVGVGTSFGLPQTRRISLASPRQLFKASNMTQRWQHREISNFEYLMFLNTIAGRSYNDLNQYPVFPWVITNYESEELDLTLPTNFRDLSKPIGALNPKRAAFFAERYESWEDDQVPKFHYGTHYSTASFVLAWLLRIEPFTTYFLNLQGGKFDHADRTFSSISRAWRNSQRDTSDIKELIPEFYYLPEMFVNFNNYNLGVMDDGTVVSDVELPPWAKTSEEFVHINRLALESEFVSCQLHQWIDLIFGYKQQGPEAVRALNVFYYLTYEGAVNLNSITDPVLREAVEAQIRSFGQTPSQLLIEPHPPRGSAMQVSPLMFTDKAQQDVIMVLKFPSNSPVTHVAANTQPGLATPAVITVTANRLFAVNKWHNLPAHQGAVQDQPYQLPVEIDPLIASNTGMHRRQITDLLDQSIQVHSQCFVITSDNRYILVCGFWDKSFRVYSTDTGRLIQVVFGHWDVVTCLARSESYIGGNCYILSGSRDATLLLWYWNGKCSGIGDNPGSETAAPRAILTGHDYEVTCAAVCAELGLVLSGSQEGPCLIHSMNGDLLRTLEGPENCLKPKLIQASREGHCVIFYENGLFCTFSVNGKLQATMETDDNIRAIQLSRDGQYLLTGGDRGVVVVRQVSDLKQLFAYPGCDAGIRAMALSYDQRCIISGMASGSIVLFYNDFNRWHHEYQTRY

| SMILES | IC50 [nM] |
| --- | --- |
| c1ccc2cc(-c3ccnc(N4CCNCC4)n3)ccc2c1 [Comparing compound 1, reference compound] | > 2000 |
| NCC1CCN(c2nccc(-c3cnc4ccccc4c3)n2)CC1 [Compound 1, (1-(4-(quinolin-3-yl)pyrimidin-2-yl)piperidin-4-yl)methylamine] | < 200 |
| O=CNCC1CCN(c2nccc(-c3cnc4ccccc4c3)n2)CC1 [Compound 2, N-((1-(4-(quinolin-3-yl)pyrimidin-2-yl)piperidin-4-yl)methyl)formamide] | > 2000 |
| NCC1CCN(c2nccc(-c3ccc4ncccc4c3)n2)CC1 [Compound 3, (1-(4-(quinolin-6-yl)pyrimidin-2-yl)piperidin-4-yl)methylamine] | > 2000 |
| O=CNCC1CCN(c2nccc(-c3ccc4ncccc4c3)n2)CC1 [Compound 4, N-((1-(4-(quinolin-6-yl)pyrimidin-2-yl)piperidin-4-yl)methyl)formamide] | > 2000 |
| NCC1CCN(c2nccc(-c3ccc4ccccc4n3)n2)CC1 [Compound 5, (1-(4-(quinolin-2-yl)pyrimidin-2-yl)piperidin-4-yl)methylamine] | > 2000 |
| NCC1CCN(c2nccc(-c3cnc4ccc(F)cc4c3)n2)CC1 [Compound 7, (1-(4-(6-fluoroquinolin-3-yl)pyrimidin-2-yl)piperidin-4-yl)methylamine] | 200 to 1000 |
| NCC1CCN(c2nccc(-c3cc4ccccc4nc3N3CCC(CN)CC3)n2)CC1 [Compound 8, (1-(3-(2-(4-(aminomethyl)piperidin-1-yl)pyrimidin-4-yl)quinolin-2-yl)piperidin-4-yl)methylamine] | 1000 to 2000 |
| COc1nc2ccccc2cc1-c1ccnc(N2CCC(CN)CC2)n1 [Compound 9, (1-(4-(2-methoxyquinolin-3-yl)pyrimidin-2-yl)piperidin-4-yl)methylamine] | < 200 |
| NCC1CCN(c2nccc(-c3cc4ccccc4nc3O)n2)CC1 [Compound 10, 3-(2-(4-(aminomethyl)piperidin-1-yl)pyrimidin-4-yl)quinolin-2-ol] | < 200 |
| [2H]c1nc2ccccc2cc1-c1ccnc(N2CCC(CN)CC2)n1 [Compound 11, (1-(4-(quinolin-3-yl-2-d)pyrimidin-2-yl)piperidin-4-yl)methylamine] | < 200 |
| NCC1CCN(c2cc(-c3cnc4ccccc4c3)ccn2)CC1 [Compound 12, (1-(4-(quinolin-3-yl)pyridin-2-yl)piperidin-4-yl)methylamine] | > 2000 |
| NCC1CCN(c2nccc(-c3cc(=O)c4ccccc4o3)n2)CC1 [Compound 13, 2-(2-(4-(aminomethyl)piperidin-1-yl)pyrimidin-4-yl)-4hydro-benzopyran-4-one] | > 2000 |
| NCC1CCN(c2cccc(-c3cnc4ccccc4c3)n2)CC1 [Compound 14, (1-(6-(quinolin-3-yl)pyridin-2-yl)piperidin-4-yl)methylamine] | > 2000 |
| NCC1CCN(c2cccc(-c3cnc4ccccc4c3)c2)CC1 [Compound 15, (1-(3-(quinolin-3-yl)phenyl)piperidin-4-yl)methylamine] | > 2000 |
| NCC1CCN(c2nccc(-c3cc4ccccc4nc3N)n2)CC1 [Compound 16, 3-(2-(4-(aminomethyl)piperidin-1-yl)pyrimidin-4-yl)quinolin-2-amine] | > 2000 |
| NC1CCN(c2nccc(-c3cnc4ccccc4c3)n2)CC1 [Compound 17, 1-(4-(quinolin-3-yl)pyrimidin-2-yl)piperidine-4-amine] | 200 to 1000 |
| NCCC1CCN(c2nccc(-c3cnc4ccccc4c3)n2)CC1 [Compound 19, 2-(1-(4-(quinolin-3-yl)pyrimidin-2-yl)piperidin-4-yl)ethylamine] | 200 to 1000 |
| OCC1CCN(c2nccc(-c3cnc4ccccc4c3)n2)CC1 [Compound 20, (1-(4-(quinolin-3-yl)pyrimidin-2-yl)piperidin-4-yl)methanol] | > 2000 |
| OCCC1CCN(c2nccc(-c3cnc4ccccc4c3)n2)CC1 [Compound 21, (1-(4-(quinolin-3-yl)pyrimidin-2-yl)piperidin-4-yl)ethanol] | > 2000 |

The next lines start with the values.

| IC50 [nM] | SMILES |
| --- | --- |
| > 2000 | C[C@@H]1CN(c2nccc(-c3cnc4ccccc4c3)n2)C[C@H](C)N1 [Compound 22, 3-(2-((3S,5R)-3,5-dimethylpiperazin-1-yl)pyrimidin-4-yl)quinoline] |
| > 2000 | CN1CCN(c2nccc(-c3cnc4ccccc4c3)n2)CC1 [Compound 23, 3-(2-(4-methylpiperazin-1-yl)pyrimidin-4-yl)quinoline] |
| > 2000 | c1ccc2ncc(-c3ccnc(N4CCCNCC4)n3)cc2c1 [Compound 24, 3-(2-(1,4-diaza-1-yl)pyrimidin-4-yl)quinoline] |
| < 200 | NCCNc1nccc(-c2cnc3ccccc3c2)n1 [Compound 26, N-(4-(quinolin-3-yl)pyrimidin-2-yl)ethane-1,2-diamine] |
| 1000 to 2000 | NCCCNc1nccc(-c2cnc3ccccc3c2)n1 [Compound 27, N-(4-(quinolin-3-yl)pyrimidin-2-yl)propane-1,3-diamine] |
| > 2000 | c1cc(-c2cnc3c(c2)OCCO3)nc(N2CCNCC2)n1 [Compound 28, 7-(2-(piperazin-1-yl)pyrimidin-4-yl)-2,3-dihydro-[1,4]dioxy[2,3-b]pyridine] |
| > 2000 | c1cc(-c2ccc3c(c2)OCCO3)nc(N2CCNCC2)n1 [Compound 29, 4-(2,3-dihydrobenzo[b][1,4]dioxin-6-yl)-2-(piperazin-1-yl)pyrimidine] |
| > 2000 | COc1cc(-c2ccnc(N3CCNCC3)n2)cnc1OC [Compound 30, 4-(5,6-dimethoxy-pyridin-3-yl)-2-piperazin-1-yl-pyrimidine] |
| > 2000 | COc1ccc(-c2ccnc(N3CCNCC3)n2)cc1OC [Compound 31, 4-(3,4-dimethoxy-phenyl)-2-piperazin-1-yl-pyrimidine] |
| 200 to 1000 | c1ccc2c(-c3ccnc(N4CCNCC4)n3)c[nH]c2c1 [Compound 32, 3-(2-(piperazin-1-yl)pyrimidin-4-yl)-1H-indole] |
| 200 to 1000 | c1ccc2c(-c3ccnc(N4CCNCC4)n3)coc2c1 [Compound 33, 4-(benzofuran-3-yl)-2-(piperazin-1-yl)pyrimidine] |
| > 2000 | COc1cc(-c2ccnc(N3CCNCC3)n2)cnc1O [Compound 34, 3-methoxy-5-(2-piperazin-1-yl-pyrimidin-4-yl)-pyridin-2-ol] |
| < 200 | c1ccc2ncc(-c3ncnc(N4CCNCC4)n3)cc2c1 [Compound 35, 3-(4-(piperazin-1-yl)-1,3,5-triazin-2-yl)quinoline] |
| 200 to 1000 | c1ccc2ncc(-c3nc(N4CCNCC4)nc4ccccc34)cc2c1 [Compound 36, 2-(piperazin-1-yl)-4-(quinolin-3-yl)quinazoline] |
| 200 to 1000 | c1ccc2ncc(-c3nc(N4CCNCC4)nc4c3CCCC4)cc2c1 [Compound 37, 2-(piperazin-1-yl)-4-(quinolin-3-yl)-5,6,7,8-tetrahydroquinazoline] |
| < 200 | Nc1cnc(N2CCNCC2)nc1-c1cnc2ccccc2c1 [Compound 38, 3-(5-amino-2-(piperazin-1-yl)pyrimidin-4-yl)quinoline] |
| < 200 | COc1cc(-c2cnc3ccccc3c2)nc(N2CCNCC2)n1 [Compound 39, 3-(6-methoxy-2-(piperazin-1-yl)pyrimidin-4-yl)quinoline] |
| < 200 | FC(F)(F)c1cc(-c2cnc3ccccc3c2)nc(N2CCNCC2)n1 [Compound 40, 3-(2-(piperazin-1-yl)-6-(trifluoromethyl)pyrimidin-4-yl)quinoline] |
| 200 to 1000 | c1ccc2ncc(-c3cc4nccn4c(N4CCNCC4)n3)cc2c1 [Compound 41, 3-(5-(piperazin-1-yl)imidazo[1,2-c]pyrimidin-7-yl)quinoline] |
| < 200 | N#Cc1cc(-c2cnc3ccccc3c2)nc(N2CCNCC2)n1 [Compound 42, 3-(6-cyano-2-(piperazin-1-yl)pyrimidin-4-yl)quinoline] |
| < 200 | COc1cnc(N2CCNCC2)nc1-c1cnc2ccccc2c1 [Compound 43, 3-(5-methoxy-2-(piperazin-1-yl)pyrimidin-4-yl)quinoline] |
| 200 to 1000 | Cn1cnc2c(-c3cnc4ccccc4c3)nc(N3CCNCC3)nc21 [Compound 45, 3-(9-methyl-2-(piperazin-1-yl)-9H-purin-6-yl)quinoline] |
| < 200 | Fc1cnc(N2CCNCC2)nc1-c1cnc2ccccc2c1 [Compound 46, 3-(5-fluoro-2-(piperazin-1-yl)pyrimidin-4-yl)quinoline] |
| < 200 | Nc1cc(-c2cnc3ccccc3c2)nc(N2CCNCC2)n1 [Compound 47, 2-(piperazin-1-yl)-6-(quinolin-3-yl)pyrimidin-4-amine] |
| 1000 to 2000 | Nc1cc(N2CCNCC2)nc(-c2cnc3ccccc3c2)n1 [Compound 48, 6-(piperazin-1-yl)-2-(quinolin-3-yl)pyrimidin-4-amine] |
| 200 to 1000 | c1ccc2ncc(-c3cc(N4CCOCC4)nc(N4CCNCC4)n3)cc2c1 [Compound 49, 4-(2-(piperazin-1-yl)-6-(quinolin-3-yl)pyrimidin-4-yl)morpholine] |
| < 200 | c1ccc2ncc(-c3nc(N4CCNCC4)ncc3C3CC3)cc2c1 [Compound 50, 3-(5-cyclopropyl-2-(piperazin-1-yl)pyrimidin-4-yl)quinoline] |
| < 200 | COc1ccc(-c2cc(-c3cnc4ccccc4c3)nc(N3CCNCC3)n2)cc1 [Compound 51, 3-(6-(4-methoxyphenyl)-2-(piperazin-1-yl)pyrimidin-4-yl)quinoline] |
